Measurements published in patent US6518307B2, “Control of microbial populations in the gastrointestinal tract of animals” (Lynntech, Inc., priority 2000, dated 2003).

Columns and labels:
bacteria = test: In vitro bacterial kill in the presence of interfering compounds found in poultry ingesta; assay type: cell-based; conditions: in the presence of potentially interfering compounds of poultry ingesta
From the text: Organic compounds have been evaluated for biocidal efficacy in the upper GI tract of poultry, including D-limonene. […] Organic acids have also found utility as a drinking water biocide for gut bacteria.

[1] = cited from earlier work
[2] = test system: bacteria in the crops of market-age broilers; test: Biocidal effect of a drinking water oxidant in the crops of market-age broilers; assay type: in vivo; conditions: dissolved in drinking water
Experimental: A variety of chemicals have been evaluated for efficacy as a drinking water-based biocide for administration to birds during the period of feed withdrawal. […] It was found, however, that the biocidal effect of this dissolved, short-lived oxidant was minimal in the crops of market-age broilers. This ineffectiveness is thought to be due primarily to the high ozone demand of the ingesta itself, which consumes the majority of the ozone and subsequently prevents delivery of sufficient ozone to the bacteria surfaces.

Salmonella enteritidis [3] = test: In vitro reduction of Salmonella enteritidis in the presence of autoclaved broiler feed; assay type: cell-based; conditions: 1 h, 37° C.
Experimental: Another study was performed to determine the bactericidal effects of the same three peracids investigated in the first study. Eleven tubes were filled with 0.5 g of autoclaved broiler feed to which 100 ul of a Salmonella enteritidis culture broth was added. Two of the tubes were additionally filled with 1.9 ml of distilled water and the remaining nine were filled with an additional 1.7 ml of H2O. The peracids were added to the nine tubes to achieve a 0.0125% of each of the three peracids and two subsequent dilutions to achieve 0.00625% and 0.003125% of each. The samples were incubated at 37° C. and vortexed. After 1 h, the samples were plated and diluted to yield a plate count of 10^4 and 10^3 cfu/ml

[4] = in water, alcohol, ether, and sulfuric acid; cited from earlier work
Salmonella enteritidis [5] = test: Reduction of Salmonella in broiler crops, peracid in drinking water during 8 h feed withdrawal (Example 6); assay type: in vivo; conditions: 8 h exposure, broilers
Experimental: To determine the biocidal effect of perlactic and percitric on Salmonella in the upper GI tract (crops) of broiler chickens, peracid solutions were added to the drinkers such that the concentration of perlactic was 0.006 or 0.003% and percitric was at a 0.03% concentration. The birds were deprived of water for 8 h prior to an 8 h feed withdrawal period and allowed to drink the water for 8 h. Prior to reintroduction of the water with the test compounds, the birds were gavaged with 1 ml of 10^8 Salmonella. After the 8 h test consumption, the birds were terminated, the crops removed aseptically, stomached for 30 seconds, diluted and plated onto BGA with NO/NA.

Salmonella enteritidis [6] = test: Reduction of Salmonella in broiler crops under different consumption pressures (Example 7); assay type: in vivo; conditions: 0.003125% (30 ppm) in drinking water
Experimental: Another experiment was designed to further characterize the disinfection effect of perlactic acids when different consumption pressures were placed on 8 week-old broilers. All of the birds had the feed removed 8 hours prior to slaughter. Perlactic acid was added at 0.003125% (30 ppm) to the drinking water for the last 8 hours of the study (feed withdrawal period). The first treatment group had water removed 8 hours prior to the 8 h feed withdrawal (PL 8-8-8) and the second treatment group had only feed withdrawal/perlactic treatment (PL 8—8). The last group had access to the peracid in their drinking water 12 hours prior to slaughter and the feed taken up 4 hours after that yielding a final feed withdrawal time of 8 h (PL 12-8). At the conclusion of the study, the crops were processed microbiologically similar to the methods described for FIG. 3.

Salmonella enteritidis [7] = test: Reduction of Salmonella in crops of SE challenged broilers, perlactic acid vs lactic acid and hydrogen peroxide (Example 8); assay type: in vivo; conditions: 30 ppm in drinking water for 8 hours
Experimental: In the final broiler study, forty-five 8-week old broilers were divided up into 3 groups with […]. Upon feed withdrawal, all birds were gavaged with 1 ml of a 1×10^8 challenge of Salmonella enteritidis. At this time, all feed was removed and the drinking water treatments administered. […] All groups received the same withdrawal time of 8 hours. At the time of kill, the crops were aseptically collected after cervical dislocation. The crops were added to […] bags containing 10 ml of PBS. The bags were stomached for 30 sec where upon 250 μl were removed and added to 2.25 ml of PBS. […] Groups 2 and 3 were directly plated from the […] bags by taking 100 μl from the bag and spread plating it onto BGA plates. These plates were incubated for 24 hrs at 37° C. The plates were counted for CFUs and log 10 reductions. After the bags had been used for dilution purposes, 9.0 ml of tetrathionate broth was added for enrichment purposes. These bags were incubated along with the plates. 24 hours later, 1 loopful of the bag contents were streaked onto BGA plates for +/- observations.

[8] = all concentrations (0.0125%, 0.00625%, 0.003125%)
[9] = highest concentration (0.0125%)

For C=C(C)[C@H]1CC=C(C)CC1 [D-limonene], the “in vitro antibacterial effect” value (bacteria) was “excellent bacterial kills”.

In the case of OO [HP, hydrogen peroxide, reference compound], the “loss of active ingredients” value ([1]; 30 to 90% solution) is listed as “less than 1 % per year”.

For O=[O+][O-] [Ozone], the “biocidal effect in the crops” value [2] was “minimal”.

In the case of CC(=O)O [acetic acid], the “in vitro antibacterial effect” value (bacteria) is reported as “excellent in vitro antibacterial capability”.

In the case of CC(=O)OO [peracetic acid], the “biocidal effect on Salmonella enteritidis” value (Salmonella enteritidis [3]; [8]) is listed as “poor biocide”, the “time to lose half its strength through hydrolysis” value ([1]; 1% solution) is listed as 6 days and the solubility [4] is listed as “freely soluble”.

For CC(O)C(=O)OO (centres unmarked) [perlactic acid], the “biocidal effect on Salmonella enteritidis” value (Salmonella enteritidis [3]; [8]) was “showed a disinfection efficacy at all concentrations”, the “biocidal effect on Salmonella enteritidis” value (Salmonella enteritidis [3]; [9]) was “eliminated the Salmonella to levels that fell below the detection limit of this assay” and the “log reduction of Salmonella in the crop” value (Salmonella enteritidis [5]; 0.003% in drinking water) was “two”. For the same compound, the “reduction of Salmonella in the crop” value (Salmonella enteritidis [5]; 0.006 or 0.003% in drinking water) was “multiple log reduction”, the “effectiveness in reducing Salmonella in crops compared to FIG. 3” value (Salmonella enteritidis [6]; same concentrate used 1 week later) was “diminished” and the “influence of increased exposure time or water deprivation prior to feed withdrawal on biocidal effect” value (Salmonella enteritidis [6]; PL 8-8-8, PL 8-8, PL 12-8) was “does not increase the biocidal effect”. For the same compound, the “reduction in Salmonella in the crop as compared to the control” value (Salmonella enteritidis [7]) was 2.71 Log10.

For percitric acid, the “biocidal effect on Salmonella enteritidis” value (Salmonella enteritidis [3]; diluted samples (0.00625%, 0.003125%)) was “not as efficient”, the “biocidal effect on Salmonella enteritidis” value (Salmonella enteritidis [3]; [9]) was “significant biocidal effects” and the “reduction of Salmonella in the crop” value (Salmonella enteritidis [5]; 0.03% in drinking water) was “multiple log reduction”.
